According to patent EP0042354A2, “Imidazobenzothiadiazepines, process for their preparation and pharmaceutical compositions containing them” (CIBA-GEIGY AG, priority 1980, dated 1981):

Assays:
Type in all cases: in vivo
Ratten = test: Sidman avoidance test (conditioned avoidance, lever press to postpone foot shock), rats; details: Rattus norvegicus, compound given 30, 90 and 210 min before the test, total dose, read-out: Gesamtdosis, welche die Vermeidungs-Reaktionen vermindert
Text: (§1) Die Verbindungen der Erfindung zeigen wertvolle pharmakologische Eigenschaften, in erster Linie neuroleptische Wirkungen. Diese können in Tierversuchen, vorzugsweise an Säugern, z.B. Mäusen, Ratten oder Affen, als Testobjekte, nachgewiesen werden. Die genannten Verbindungen können ihnen enteral oder parenteral, vorzugsweise oral oder subkutan, intravenös oder intraperitoneal, z.B. durch Steckkapseln oder in Form von Stärke enthaltenden Suspensionen bzw. wässerigen Lösungen, verabreicht werden. Die verwendete Dosis kann in einem Bereich von ungefähr zwischen 0,01 und 100 mg/kg/Tag, vorzugsweise ungefähr 0,05 und 10 mg/kg/Tag, insbesonder zwischen 0,1 und 5 mg/kg/Tag, liegen.
(§2) Die genannten neuroleptischen Eigenschaften können an ausgewachsenen Ratten oder Totenkopf-Aeffchen (squirrel monkeys) nachgewiesen werden. Die Tiere sind zur Betätigung eines Hebels trainiert, wodurch sie einem auf den Fuss verabreichten elektrischen Schock ausweichen können. Jeder Hebeldruck verschiebt den Schock um 30 Sekunden. Vergisst das Tier den Hebel innerhalb des genannten Zeitintervalls einmal zu drücken, so werden alle 15 Sekunden kurze (0,5 sec.) elektrische Schocks abgegeben, bis das Tier den Hebel wieder betätigt. […]

[1] = tested on: Totenkopf-Aeffchen (squirrel monkeys); test: Sidman avoidance test (conditioned avoidance, lever press to postpone foot shock), monkeys; details: Saimiri, in Primates, compound given 30, 90 and 210 min before the test, total dose, read-out: Gesamtdosis, welche die Vermeidungs-Reaktionen vermindert
Text: as §1, §2

Totenkopf-Aeffchen = test: Extrapyramidal side effects and neurological symptoms observed in haloperidol-sensitised squirrel monkeys
Text: Die bei den klassischen Neuroleptica bekannten extrapyramidalen Nebenwirkungen (ENW) lösen in Totenkopf-Aeffchen, welche vorher einer wiederholten antipsychotischen Behandlung unterworfen waren, charakteristische motorische Syndrome aus. Diese Bewegungsstörungen bestehen aus dystonischen Kõrperhaltungen und dyskinetischen Bewegungen, welche besser den bei Menschen auftretenden ENW entsprechen, als dies die Katalepsie oder Zittern tut. So können potentielle extrapyramidale Nebenwirkungen, aber gegebenenfalls auch andere neurologische Symptome, z.B. Ptosis, durch Beobachtung von ausgewachsenen Totenkopf-Aeffchen (von einem Gewicht von 700-1200 g) beurteilt werden. Die Tiere werden einmal wöchentlich oder einmal in zwei Wochen mit Haloperidol (1,25 mg/kg) behandelt. Nach einer derartigen Behandlung von ungefähr 2-4 Monaten treten 1-6 Stunden nach der Verabreichung von Haloperidol offensichtliche dystonische Körperhaltungen und dyskinetische Bewegungen auf. Sonst können in anderen Zeitpunkten keine abnormalen Bewegungen der Affen festgestellt werden. Nach dem Auftreten von, durch Haloperidol hervorgerufenen Dyskinesien, wird die oben geschilderte Behandlungsweise abgebrochen. Die Tiere erhalten nachher lediglich alle 4-8 Wochen 1,25 mg/kg Haloperidol und sie werden als Kontrolltiere bei der Untersuchung von Verbindungen dieser Erfindung eingesetzt.
Die Affen werden in Intervallen von 2, 4 und 6 Stunden nach der Behandlung beurteilt. Die Versuche werden in verschlossenen Zellen, welche mit ferngesteuerten Video-Beobachtungsapparaten und mit einem einheitlichen Summton-Generator ausgerüstet sind, durchgeführt. Die Beurteilungen der Tiere werden durch zwei voneinander unabhängige Beobachter vorgenommen, welche keine Kenntnis von den verabreichten Verbindungen und vom Ziel des Versuchs haben. Während der neurologischen Untersuchungen werden die Affen von einer dritten Person behandelt. Zuerst werden die Tiere durch das Video-System beobachtet. Dann betreten die Beobachter die Versuchstelle und notieren die Reaktionen der Affen als "motorisch" (das Tier geht umher in der Zelle), "visuell" (eine offenbare Reaktion, jedoch kein Umhergehen) und "keine" (keine Reaktion). Es werden auch Aktivität, Köperhaltung, Zittern, vermehrter Speichelfluss und andere neurologische Symptome berücksichtigt. Besondere Beachtung wird dem Vorhandensein oder Abwesenheit von "bizarren", vorher genannten, distonischen Körperhaltungen und dyskinetischen Bewegungen gewidmet. Die die Tiere behandelnde Person nimmt dann den Affen aus der Zelle heraus. Dabei werden die Reaktionen des Affen auf die Annäherung der mit einem Handschuh geschützten Hand, auf die erste Berührung beim Anfassen undauf die Hemmnisse nach der Gefangennahme, separat aufgeschrieben. Die Vokalisation während der Gefangennahme wird auch beurtielt. Die Person, welche das Tier behandelt, wertet dann den Körpertonus und die Pupillengrösse aus und stellt fest, ob Ptosis vorhanden ist. Hat die vorhergehende Untersuchung nahegelegt, dass Katalepsie aufgetreten ist, so wird dieses Symptom ausgewertet. Der Affe wird zuerst, Kopf nach unten, auf den Boden, dann zum Zelleneingang und schliesslich in die Beobachtungszelle gestellt. Bleibt der Affe in allen diesen Stellungen mindestens 5 Sekunden im wesentlichen unbeweglich, so wird das Vorhandensein der Katalepsie bejaht. […]

CN1CCN(C2=Nc3ccccc3Sc3nccn32)CC1 [Beispiel 1, 5-(4-Methylpiperazino)-imidazo[2,1-b][1,3,5]benzothia-diazepin]
minimal effective dose (Ratten): ≤ 10 mg/kg
minimal effective dose [1]: ≤ 10 mg/kg
vermehrter Speichelfluss (Totenkopf-Aeffchen; in vivo): nicht festellbar

CN1CCN(C2=Nc3cc(Cl)ccc3Nc3ccccc32)CC1 [Clozapin]
dyskinetische Bewegungen / Dyskinesien (Totenkopf-Aeffchen; 10 mg/kg, monkeys rated 2, 4 and 6 h after treatment): nicht aufgetreten
vermehrter Speichelfluss (Totenkopf-Aeffchen; monkeys rated 2, 4 and 6 h after treatment, doses as in the dyskinesia test): bei jedem untersuchten Affen

O=C(CCCN1CCC(O)(c2ccc(Cl)cc2)CC1)c1ccc(F)cc1 [Haloperidol]
dyskinetische Bewegungen / Dyskinesien (Totenkopf-Aeffchen; 0,625 mg/kg (low dose), monkeys rated 2, 4 and 6 h after treatment): an fünf Affen feststellbar
dyskinetische Bewegungen / Dyskinesien (Totenkopf-Aeffchen; 1,25 mg/kg, monkeys rated 2, 4 and 6 h after treatment): schwere Dyskinesie
